Experimental findings from patent US9334290B2, “Substituted tetrahydrocarbazole and carbazole carboxamide compounds” (Bristol-Myers Squibb Company, priority 2013, dated 2016) are described below.

Like-named read-outs stand apart in the source and are kept apart here. Bounds are passed on as bounds.

Experiment [1] addresses Jak2 tyrosine kinase (Homo sapiens (Human), UniProt O60674). Kind of experiment: Jak2 tyrosine kinase assay. It counts as biochemical.
Experiment [2] relates to CD69 expression on B cells in human whole blood. Nature of the experiment: Whole blood assay of BCR-stimulated CD69 expression on B cells. The experiment is classed as cell-based.
Experiment [3] deals with human recombinant Btk (Homo sapiens (Human), UniProt Q06187). Kind of experiment: Human Recombinant Btk enzyme assay. The experiment is classed as biochemical. The settings on record: read-out: Btk IC50 value.
human recombinant Btk, sequence (Q06187 whole entry): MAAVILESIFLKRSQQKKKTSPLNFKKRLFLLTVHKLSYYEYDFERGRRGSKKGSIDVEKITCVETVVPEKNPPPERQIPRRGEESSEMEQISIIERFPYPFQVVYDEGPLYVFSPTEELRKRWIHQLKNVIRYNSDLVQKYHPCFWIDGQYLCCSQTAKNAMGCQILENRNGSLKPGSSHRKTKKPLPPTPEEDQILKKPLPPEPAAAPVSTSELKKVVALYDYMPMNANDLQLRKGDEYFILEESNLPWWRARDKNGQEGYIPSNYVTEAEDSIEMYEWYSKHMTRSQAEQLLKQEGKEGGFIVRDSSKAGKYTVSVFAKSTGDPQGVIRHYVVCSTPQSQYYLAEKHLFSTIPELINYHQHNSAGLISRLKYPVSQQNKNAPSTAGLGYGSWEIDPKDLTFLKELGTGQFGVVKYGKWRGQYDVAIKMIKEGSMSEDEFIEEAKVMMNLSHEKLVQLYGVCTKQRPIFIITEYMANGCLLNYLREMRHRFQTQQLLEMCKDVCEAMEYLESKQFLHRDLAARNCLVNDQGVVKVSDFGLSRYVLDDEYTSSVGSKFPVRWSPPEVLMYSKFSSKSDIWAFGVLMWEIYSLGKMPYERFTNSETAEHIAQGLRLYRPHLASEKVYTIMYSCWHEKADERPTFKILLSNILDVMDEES
The mark [4] stands for this setting: BCR-stimulated, read-out: CD69 IC50 values.
Setting [5] is: Homo sapiens, B-cell, BCR-stimulated, read-out: CD69 IC50 values.

Jak2 tyrosine kinase, sequence (O60674 whole entry): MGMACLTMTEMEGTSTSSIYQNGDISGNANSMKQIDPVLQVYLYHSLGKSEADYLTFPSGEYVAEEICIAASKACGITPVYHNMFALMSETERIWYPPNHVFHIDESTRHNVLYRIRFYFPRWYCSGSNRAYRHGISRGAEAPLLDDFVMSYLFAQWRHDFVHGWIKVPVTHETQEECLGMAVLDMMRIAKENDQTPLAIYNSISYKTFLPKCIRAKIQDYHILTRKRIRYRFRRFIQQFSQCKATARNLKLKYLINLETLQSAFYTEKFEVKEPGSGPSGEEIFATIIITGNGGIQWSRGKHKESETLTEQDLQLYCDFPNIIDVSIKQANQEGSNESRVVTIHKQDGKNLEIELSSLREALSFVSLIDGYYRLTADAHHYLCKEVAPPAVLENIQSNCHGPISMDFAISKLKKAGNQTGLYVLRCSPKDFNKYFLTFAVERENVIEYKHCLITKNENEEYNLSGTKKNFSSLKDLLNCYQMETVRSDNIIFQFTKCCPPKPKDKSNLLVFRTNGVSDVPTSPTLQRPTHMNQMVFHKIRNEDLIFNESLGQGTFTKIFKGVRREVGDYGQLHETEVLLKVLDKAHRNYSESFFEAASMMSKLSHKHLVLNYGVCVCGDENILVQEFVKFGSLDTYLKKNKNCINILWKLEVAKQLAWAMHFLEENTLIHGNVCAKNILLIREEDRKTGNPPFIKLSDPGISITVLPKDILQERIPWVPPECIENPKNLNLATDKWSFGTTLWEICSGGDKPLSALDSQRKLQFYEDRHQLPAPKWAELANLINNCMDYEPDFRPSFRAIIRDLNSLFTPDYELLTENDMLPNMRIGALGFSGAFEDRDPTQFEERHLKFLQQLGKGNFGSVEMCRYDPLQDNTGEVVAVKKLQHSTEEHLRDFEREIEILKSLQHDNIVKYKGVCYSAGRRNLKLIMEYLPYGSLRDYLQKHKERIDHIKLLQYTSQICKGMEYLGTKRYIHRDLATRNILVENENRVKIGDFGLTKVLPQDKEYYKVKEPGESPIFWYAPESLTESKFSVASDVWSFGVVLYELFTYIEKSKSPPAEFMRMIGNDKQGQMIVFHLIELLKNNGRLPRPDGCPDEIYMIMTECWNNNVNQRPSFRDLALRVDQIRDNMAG

Take `Cc1c(-c2c(Cl)cc(C(N)=O)c3[nH]c4cc(C(C)(C)O)ccc4c23)cccc1-n1c(=O)c2cccc(F)c2n(C)c1=O` (atropisomer, axis not shown) [Example 11, 3-Chloro-4-(R)-(3-(S)-(8-fluoro-1-methyl(d3)-2,4-dioxo-1,2-dihydroquinazolin-3(4H)-yl)-2-methylphenyl)-7-(2-hydroxypropan-2-yl)-9H-carbazole-1-carboxamide]: the half-inhibitory concentration (IC50) was determined as 910 nM in experiment [1] and 65 nM in experiment [2] (setting [4]). Take `Cc1c(-c2c(F)cc(C(N)=O)c3[nH]c4cc(C(C)(C)O)ccc4c23)cccc1-n1c(=O)c2cccc(F)c2n(C)c1=O` (atropisomer, axis not shown) [Example 18, 3-Fluoro-4-(3-(S)-(8-fluoro-1-methyl-2,4-dioxo-1,2-dihydroquinazolin-3(4H)-yl)-2-methylphenyl)-7-(2-hydroxypropan-2-yl)-9H-carbazole-1-carboxamide]: the IC50 in experiment [2] (setting [4]) came out at 56 nM. With `Cc1c(-c2c(Cl)cc(C(N)=O)c3[nH]c4c(c23)CC[C@H](C(C)(C)O)C4)cccc1-n1c(=O)c2cccc(F)c2n(C)c1=O` (atropisomer, axis not shown) [Example 26, 6-Chloro-5-(R)-(3-(S)-(8-fluoro-1-methyl-2,4-dioxo-1,2-dihydroquinazolin-3(4H)-yl)-2-methylphenyl)-2-(S)-(2-hydroxypropan-2-yl)-2,3,4,9-tetrahydro-1H-carbazole-8-carboxamide], the values for the IC50 in experiment [1] and in experiment [2] (setting [4]) were 7500 nM and 160 nM, respectively. As to `Cc1c(-c2c(Cl)cc(C(N)=O)c3[nH]c4cc(C(C)(C)O)ccc4c23)cccc1-n1c(=O)c2cccc(F)c2n(C)c1=O` (single isomer, unassigned) [Example 1], in experiment [2] (setting [4]), the half-inhibitory concentration (IC50) was determined as 190 nM. In the case of `Cc1c(-c2c(Cl)cc(C(N)=O)c3[nH]c4cc(C(C)(C)O)ccc4c23)cccc1-n1c(=O)c2cccc(F)c2n(C)c1=O` (single isomer, unassigned) [Example 2], the half-maximal inhibitory concentration (IC50) in experiment [2] (setting [4]) was 90 nM. Regarding `[2H]C([2H])([2H])n1c(=O)n(-c2cccc(-c3c(Cl)cc(C(N)=O)c4[nH]c5cc(C(C)(C)O)ccc5c34)c2C)c(=O)c2cccc(F)c21` (single isomer, unassigned) [Example 12], the half-maximal inhibitory concentration (IC50) in experiment [1] is 1900 nM; in experiment [2] (setting [5]), 190 nM. For `Cc1c(-c2c(Cl)cc(C(N)=O)c3[nH]c4c(c23)CC[C@H](C(C)(C)O)C4)cccc1-n1c(=O)[nH]c2c(F)cccc2c1=O` (single isomer, unassigned) [Example 55], the IC50 is 9000 nM in experiment [1] and 44 nM in experiment [2] (setting [4]). Taken in the same sequence, the figures for `Cc1c(-c2c(Cl)cc(C(N)=O)c3[nH]c4c(c23)CC[C@H](C(C)(C)O)C4)cccc1-n1c(=O)[nH]c2c(F)cccc2c1=O` (single isomer, unassigned) [Example 56] were above 2000 nM and 140 nM. As to `Cc1c(-c2c(F)cc(C(N)=O)c3[nH]c4c(c23)CC[C@H](C(C)(C)O)C4)cccc1-n1c(=O)[nH]c2c(F)cccc2c1=O` (single isomer, unassigned) [Example 59], the half-inhibitory concentration (IC50) in experiment [3] worked out at 0.9 nM. Consider `Cc1c(-c2c(F)cc(C(N)=O)c3[nH]c4c(c23)CC[C@H](C(C)(C)O)C4)cccc1-n1c(=O)cc2c(Cl)cccn2c1=O` (single isomer, unassigned) [Example 64], for which the IC50 in experiment [1] was above 2000 nM. For `Cc1c(-c2c(F)cc(C(N)=O)c3[nH]c4c(c23)CC[C@H](C(C)(C)O)C4)cccc1-n1c(=O)cc2c(Cl)cccn2c1=O` (single isomer, unassigned) [Example 65], the IC50 in experiment [1] was above 2000 nM; in experiment [2] (setting [4]), 110 nM.

For `Cc1c(-c2ccc(C(N)=O)c3[nH]c4cc(C(C)(C)O)ccc4c23)cccc1-n1cnc2ccccc2c1=O` [Comparative Example 75, 7-(2-Hydroxypropan-2-yl)-4-(2-methyl-3-(4-oxoquinazolin-3(4H)-yl)phenyl)-9H-carbazole-1-carboxamide, reference compound], the IC50 in experiment [2] (Homo sapiens, B-cell, 18 h, anti-IgM + IL-4 stimulation, 18 h, read-out: CD69 IC50) worked out at 650 nM. In the case of `Cc1c(-c2c(F)cc(C(N)=O)c3[nH]c4cc(C(C)(C)O)ccc4c23)cccc1-n1c(=O)c2cccc(F)c2n(C)c1=O` [Example 17, 3-Fluoro-4-(3-(8-fluoro-1-methyl-2,4-dioxo-1,2-dihydroquinazolin-3(4H)-yl)-2-methylphenyl)-7-(2-hydroxypropan-2-yl)-9H-carbazole-1-carboxamide], in experiment [2] (setting [4]), the IC50 is 120 nM.

For `Cc1c(-c2c(F)cc(C(N)=O)c3[nH]c4cc(C(C)(C)O)ccc4c23)cccc1-n1c(=O)[nH]c2c(F)cccc2c1=O` [Example 20, 3-Fluoro-4-(3-(8-fluoro-2,4-dioxo-1,2-dihydroquinazolin-3(4H)-yl)-2-methylphenyl)-7-(2-hydroxypropan-2-yl)-9H-carbazole-1-carboxamide], the half-maximal inhibitory concentration (IC50) in experiment [2] (setting [4]) stood at 16 nM. Take `Cc1c(-c2c(F)cc(C(N)=O)c3[nH]c4cc(C(C)(C)O)ccc4c23)cccc1-n1c(=O)[nH]c2c(F)cccc2c1=O` [Example 21, 3-Fluoro-4-(R)-(3-(R)-(8-fluoro-2,4-dioxo-1,2-dihydroquinazolin-3(4H)-yl)-2-methylphenyl)-7-(2-hydroxypropan-2-yl)-9H-carbazole-1-carboxamide]: the half-maximal inhibitory concentration (IC50) in experiment [2] (setting [4]) worked out at 17 nM. As to `Cc1c(-c2c(F)cc(C(N)=O)c3[nH]c4cc(C(C)(C)O)ccc4c23)cccc1-n1c(=O)[nH]c2c(F)cccc2c1=O` [Example 22, 3-Fluoro-4-(R)-(3-(S)-(8-fluoro-2,4-dioxo-1,2-dihydroquinazolin-3(4H)-yl)-2-methylphenyl)-7-(2-hydroxypropan-2-yl)-9H-carbazole-1-carboxamide], the IC50 in experiment [2] (setting [4]) was 120 nM. On the same count and under the same terms, in the case of `Cc1c(-c2c(Cl)cc(C(N)=O)c3[nH]c4cc(C(C)(C)O)ccc4c23)cccc1-n1c(=O)ccn(-c2ccc(F)cc2)c1=O` [Example 23, 3-Chloro-4-(3-(3-(4-fluorophenyl)-2,6-dioxo-2,3-dihydropyrimidin-1(6H)-yl)-2-methylphenyl)-7-(2-hydroxypropan-2-yl)-9H-carbazole-1-carboxamide] it was 98 nM.

With `Cc1c(-c2c(Cl)cc(C(N)=O)c3[nH]c4cc(C(C)(C)O)ccc4c23)cccc1-n1c(=O)ccn(-c2ccc(F)cc2)c1=O` [Example 24, 3-Chloro-4-(R)-(3-(3-(4-fluorophenyl)-2,6-dioxo-2,3-dihydropyrimidin-1(6H)-yl)-2-methylphenyl)-7-(2-hydroxypropan-2-yl)-9H-carbazole-1-carboxamide], the half-maximal inhibitory concentration (IC50) in experiment [2] (setting [4]) worked out at 21 nM.

In experiment [1], `Cc1c(-c2c(Cl)cc(C(N)=O)c3[nH]c4c(c23)CC[C@H](C(C)(C)O)C4)cccc1-n1c(=O)c2cccc(F)c2n(C)c1=O` [Example 25, 6-Chloro-5-(3-(8-fluoro-1-methyl-2,4-dioxo-1,2-dihydroquinazolin-3(4H)-yl)-2-methylphenyl)-2-(S)-(2-hydroxypropan-2-yl)-2,3,4,9-tetrahydro-1H-carbazole-8-carboxamide] gave an IC50 above 2000 nM. For `Cc1c(-c2c(Cl)cc(C(N)=O)c3[nH]c4cc(C(C)(C)O)ccc4c23)cccc1-n1c(=O)cc2c(Cl)cccn2c1=O` [Example 32, 3-Chloro-4-(R)-(3-(R)-(5-chloro-1,3-dioxo-1H-pyrido[1,2-c]pyrimidin-2(3H)-yl)-2-methylphenyl)-7-(2-hydroxypropan-2-yl)-9H-carbazole-1-carboxamide], in experiment [2] (setting [4]), the IC50 amounted to 160 nM. The same measure, in the same setting: in the case of `Cc1c(-c2c(Cl)cc(C(N)=O)c3[nH]c4cc(C(C)(C)O)ccc4c23)cccc1-n1c(=O)cc2c(Cl)cccn2c1=O` [Example 33, 3-Chloro-4-(R)-(3-(S)-(5-chloro-1,3-dioxo-1H-pyrido[1,2-c]pyrimidin-2(3H)-yl)-2-methylphenyl)-7-(2-hydroxypropan-2-yl)-9H-carbazole-1-carboxamide] it was 24 nM. Still for that read-out and setting: in the case of `Cn1c(=O)n(-c2cccc(-c3c(Cl)cc(C(N)=O)c4[nH]c5cc(C(C)(C)O)ccc5c34)c2Cl)c(=O)c2ccccc21` [Example 42, 3-Chloro-4-(2-chloro-3-(1-methyl-2,4-dioxo-1,2-dihydroquinazolin-3(4H)-yl)phenyl)-7-(2-hydroxypropan-2-yl)-9H-carbazole-1-carboxamide] it was 210 nM.

In the case of `Cn1c(=O)n(-c2cccc(-c3c(Cl)cc(C(N)=O)c4[nH]c5cc(C(C)(C)O)ccc5c34)c2Cl)c(=O)c2ccccc21` [Example 43, 3-Chloro-4-(R)-(2-chloro-3-(1-methyl-2,4-dioxo-1,2-dihydroquinazolin-3(4H)-yl)phenyl)-7-(2-hydroxypropan-2-yl)-9H-carbazole-1-carboxamide], in experiment [2] (setting [4]), the IC50 was 71 nM. On the same count and under the same terms, in the case of `Cn1c(=O)n(-c2cccc(-c3c(Cl)cc(C(N)=O)c4[nH]c5cc(C(C)(C)O)ccc5c34)c2Cl)c(=O)c2cccc(F)c21` [Example 44, 3-Chloro-4-(2-chloro-3-(8-fluoro-1-methyl-2,4-dioxo-1,2-dihydroquinazolin-3(4H)-yl)phenyl)-7-(2-hydroxypropan-2-yl)-9H-carbazole-1-carboxamide] it was 160 nM. As to `Cn1c(=O)n(-c2cccc(-c3c(Cl)cc(C(N)=O)c4[nH]c5cc(C(C)(C)O)ccc5c34)c2Cl)c(=O)c2cccc(F)c21` [Example 45, 3-Chloro-4-(R)-(2-chloro-3-(8-fluoro-1-methyl-2,4-dioxo-1,2-dihydroquinazolin-3(4H)-yl)phenyl)-7-(2-hydroxypropan-2-yl)-9H-carbazole-1-carboxamide], in experiment [2] (setting [4]), the half-maximal inhibitory concentration (IC50) was found to be 68 nM. On the same count and under the same terms, in the case of `Cc1c(-c2c(F)cc(C(N)=O)c3[nH]c4cc(C(C)(C)O)ccc4c23)cccc1-n1c(=O)[nH]c2c(F)cc(F)cc2c1=O` [Example 50] it was 120 nM.

`[2H]C([2H])([2H])n1c(=O)n(-c2cccc(-c3c(F)cc(C(N)=O)c4[nH]c5cc(C(C)(C)O)ccc5c34)c2C)c(=O)c2cccc(F)c21` [Example 52]: half-maximal inhibition in experiment [1] (IC50) was put at 1100 nM.

Take `Cc1c(-c2c(F)cc(C(N)=O)c3[nH]c4cc(C(C)(C)O)ccc4c23)cccc1-n1c(=O)[nH]c2c(Cl)cccc2c1=O` [Example 53]: the 50% inhibitory concentration (IC50) in experiment [2] (setting [5]) was 110 nM. Regarding `Cn1c(=O)n(-c2cccc(-c3c(F)cc(C(N)=O)c4[nH]c5cc(C(C)(C)O)ccc5c34)c2Cl)c(=O)c2cccc(F)c21` [Example 61], the 50% inhibitory concentration (IC50) in experiment [2] (setting [4]) came to 93 nM.

The IC50 is the point on the concentration scale where inhibition reaches its midpoint.
